Laboratory results published in the NIST ThermoML archive (doi:10.1007/s10765-006-0088-4).
Numbers after ± are expanded uncertainties.

Settings: Liquid; for vapor or sublimation pressure: Closed cell (Static) method

Compound: CCC [propane]
- vapor or sublimation pressure (280 K): 583.1 ± 1.2 kPa
- vapor or sublimation pressure (300 K): 999 ± 2.1 kPa
- vapor or sublimation pressure (320 K): 1599.8 ± 3.3 kPa
- mass density (340 K, 3000 kPa, Vibrating tube method): 418.08 ± 0.51 kg/m3
- mass density (340 K, 5000 kPa, Vibrating tube method): 433.15 ± 0.54 kg/m3
- mass density (340 K, 10000 kPa, Buoyancy - hydrostatic balance with magnetic suspension - two sinkers): 457.22 ± 0.51 kg/m3
- mass density (340 K, 20000 kPa, Buoyancy - hydrostatic balance with magnetic suspension - one sinker): 486.49 ± 0.54 kg/m3
- mass density (340 K, 30000 kPa, Buoyancy - hydrostatic balance with magnetic suspension - one sinker): 506.41 ± 0.56 kg/m3
- mass density (340 K, 40000 kPa, Bellows volumetry): 521.92 ± 0.58 kg/m3
- mass density (340 K, 50000 kPa, Bellows volumetry): 534.58 ± 0.6 kg/m3
- mass density (340 K, 60000 kPa, Bellows volumetry): 545.76 ± 0.61 kg/m3
- mass density (340 K, 70000 kPa, Bellows volumetry): 555.4 ± 0.62 kg/m3
- mass density (340 K, 80000 kPa, Bellows volumetry): 564.13 ± 0.63 kg/m3
- mass density (340 K, 90000 kPa, Bellows volumetry): 571.96 ± 0.64 kg/m3
- mass density (340 K, 100000 kPa, Bellows volumetry): 579.21 ± 0.65 kg/m3
- mass density (340 K, 120000 kPa, Bellows volumetry): 592 ± 0.67 kg/m3
- mass density (340 K, 140000 kPa, Bellows volumetry): 603.23 ± 0.68 kg/m3
- mass density (340 K, 160000 kPa, Bellows volumetry): 613.42 ± 0.74 kg/m3
- mass density (340 K, 180000 kPa, Bellows volumetry): 622.47 ± 0.76 kg/m3
- mass density (340 K, 200000 kPa, Bellows volumetry): 631.34 ± 0.78 kg/m3
- vapor or sublimation pressure (340 K): 2432.2 ± 5 kPa
- mass density (360 K, 5000 kPa, Vibrating tube method): 380.52 ± 0.48 kg/m3
- mass density (360 K, 10000 kPa, Buoyancy - hydrostatic balance with magnetic suspension - two sinkers): 423.91 ± 0.47 kg/m3
- mass density (360 K, 20000 kPa, Buoyancy - hydrostatic balance with magnetic suspension - one sinker): 463.18 ± 0.52 kg/m3
- mass density (360 K, 30000 kPa, Buoyancy - hydrostatic balance with magnetic suspension - one sinker): 486.97 ± 0.55 kg/m3
- mass density (360 K, 40000 kPa, Bellows volumetry): 504.75 ± 0.56 kg/m3
- mass density (360 K, 50000 kPa, Bellows volumetry): 519.13 ± 0.59 kg/m3
- mass density (360 K, 60000 kPa, Bellows volumetry): 531.24 ± 0.6 kg/m3
- mass density (360 K, 70000 kPa, Bellows volumetry): 541.74 ± 0.61 kg/m3
- mass density (360 K, 80000 kPa, Bellows volumetry): 551.28 ± 0.62 kg/m3
- mass density (360 K, 90000 kPa, Bellows volumetry): 559.54 ± 0.63 kg/m3
- mass density (360 K, 100000 kPa, Bellows volumetry): 567.52 ± 0.64 kg/m3
- mass density (360 K, 120000 kPa, Bellows volumetry): 581.13 ± 0.66 kg/m3
- mass density (360 K, 140000 kPa, Bellows volumetry): 593.24 ± 0.67 kg/m3
- mass density (360 K, 160000 kPa, Bellows volumetry): 603.94 ± 0.74 kg/m3
- mass density (360 K, 180000 kPa, Bellows volumetry): 613.6 ± 0.75 kg/m3
- mass density (360 K, 200000 kPa, Bellows volumetry): 622.28 ± 0.76 kg/m3
- vapor or sublimation pressure (360 K): 3556.3 ± 7.2 kPa
- vapor or sublimation pressure (365 K): 3894.1 ± 7.9 kPa
- vapor or sublimation pressure (367 K): 4036.8 ± 8.2 kPa
- vapor or sublimation pressure (369 K): 4184.4 ± 8.5 kPa
- mass density (380 K, 10000 kPa, Buoyancy - hydrostatic balance with magnetic suspension - two sinkers): 383.94 ± 0.42 kg/m3
- mass density (380 K, 20000 kPa, Buoyancy - hydrostatic balance with magnetic suspension - one sinker): 438.11 ± 0.49 kg/m3
- mass density (380 K, 30000 kPa, Buoyancy - hydrostatic balance with magnetic suspension - one sinker): 466.65 ± 0.53 kg/m3
- mass density (380 K, 40000 kPa, Bellows volumetry): 486.9 ± 0.54 kg/m3
- mass density (380 K, 50000 kPa, Bellows volumetry): 502.92 ± 0.57 kg/m3
- mass density (380 K, 60000 kPa, Bellows volumetry): 516.27 ± 0.59 kg/m3
- mass density (380 K, 70000 kPa, Bellows volumetry): 527.68 ± 0.6 kg/m3
- mass density (380 K, 80000 kPa, Bellows volumetry): 537.77 ± 0.61 kg/m3
- mass density (380 K, 90000 kPa, Bellows volumetry): 546.83 ± 0.62 kg/m3
- mass density (380 K, 100000 kPa, Bellows volumetry): 555.08 ± 0.63 kg/m3
- mass density (380 K, 120000 kPa, Bellows volumetry): 569.69 ± 0.65 kg/m3
- mass density (380 K, 140000 kPa, Bellows volumetry): 582.4 ± 0.66 kg/m3
- mass density (380 K, 160000 kPa, Bellows volumetry): 593.57 ± 0.74 kg/m3
- mass density (380 K, 180000 kPa, Bellows volumetry): 603.76 ± 0.75 kg/m3
- mass density (380 K, 200000 kPa, Bellows volumetry): 612.75 ± 0.77 kg/m3
- mass density (400 K, 10000 kPa, Buoyancy - hydrostatic balance with magnetic suspension - two sinkers): 334.82 ± 0.37 kg/m3
- mass density (400 K, 20000 kPa, Buoyancy - hydrostatic balance with magnetic suspension - one sinker): 412.17 ± 0.46 kg/m3
- mass density (400 K, 30000 kPa, Buoyancy - hydrostatic balance with magnetic suspension - one sinker): 446.42 ± 0.51 kg/m3
- mass density (400 K, 40000 kPa, Bellows volumetry): 469.52 ± 0.52 kg/m3
- mass density (400 K, 50000 kPa, Bellows volumetry): 487.17 ± 0.56 kg/m3
- mass density (400 K, 60000 kPa, Bellows volumetry): 501.88 ± 0.58 kg/m3
- mass density (400 K, 70000 kPa, Bellows volumetry): 514.4 ± 0.59 kg/m3
- mass density (400 K, 80000 kPa, Bellows volumetry): 525.29 ± 0.6 kg/m3
- mass density (400 K, 90000 kPa, Bellows volumetry): 534.99 ± 0.61 kg/m3
- mass density (400 K, 100000 kPa, Bellows volumetry): 543.68 ± 0.62 kg/m3
- mass density (400 K, 120000 kPa, Bellows volumetry): 559.13 ± 0.64 kg/m3
- mass density (400 K, 140000 kPa, Bellows volumetry): 572.43 ± 0.65 kg/m3
- mass density (400 K, 160000 kPa, Bellows volumetry): 584.27 ± 0.74 kg/m3
- mass density (400 K, 180000 kPa, Bellows volumetry): 594.86 ± 0.75 kg/m3
- mass density (400 K, 200000 kPa, Bellows volumetry): 604.47 ± 0.77 kg/m3
